From PMC3954793, “SHP-2 Binds to Caveolin-1 and Regulates Src Activity via Competitive Inhibition of CSK in Response to H2O2 in Astrocytes” (PLoS ONE, 2014)
“Also recorded” adds a separate entry of the source. Ends that are not written are not given here.

Columns and labels:
[1] = system: Src (Tyr 419 phosphorylation); assay: Immunoblot of p-Src Y419; format: cell-based, human; settings: CRT-MG cells; PTPi IV 0–10 µM, 30 min; 5 mM H2O2, 10 min; n = 3
Method: (§1) Cells were plated and transfected with green fluorescence protein (GFP) siRNA (Samchully Pharm Co. Ltd., Seoul, Korea) as a control group and human CSK siRNA and human SHP-2 siRNA from Bioneer (Daejeon, Korea) using Lipofectamine RNAiMAX (Invitrogen, Carlsbad, CA, USA) according to the manufacturer’s instructions to achieve a final concentration of 300 nM.
(§2) Figure 7 SHP-2 and CSK reciprocally regulate H2O2-induced Src activation. […] Tubulin was evaluated as a loading control. Bottom panel, Densitometric quantification of p-Src Y419 levels (empty bars) and p-Src Y530 levels (filled bars), normalized to the level of total Src. Results are expressed as percentage of H2O2-treated values in control siRNA presented as mean ± SD. (*p<0.05 vs. H2O2-treated cells transfected with control siRNA; #p<0.05 between SHP-2 siRNA-transfected cells and CSK siRNA-transfected cells; n = 3). (B) Inhibition of SHP-2 by PTPi IV attenuated the H2O2-induced activation of the Src signaling pathway. CRT-MG cells were treated with 5 mM H2O2 or not for 10 min in the presence of 5 or 10 µM PTPi IV for 30 min, and lysed in cold-RIPA buffer. Antibodies against p-SHP-2, SHP-2, p-Src, Src, p-FAK, FAK, p-ERK, ERK, and tubulin were used for immunoblotting. Bottom panel, Densitometric quantification of p-Src Y419 levels (empty bars) and p-Src Y530 levels (filled bars), normalized to the level of total Src. […] (p, phospho).

[2] = system: SHP-2 (Y542 and Y580 phosphorylation); assay: Immunoblot of p-SHP-2 Y542 and Y580; format: cell-based, human; settings: CRT-MG cells; PTPi IV 5 or 10 µM, 30 min; 5 mM H2O2, 10 min
Method: as §2

[3] = system: Src (Tyr 530 phosphorylation); assay: Immunoblot of p-Src Y530; format: cell-based, human; settings: CRT-MG cells; PTPi IV 0–10 µM, 30 min; 5 mM H2O2, 10 min; n = 3
Method: as §1, §2

FAK phosphorylation = assay: Immunoblot of p-FAK; format: cell-based, human; settings: CRT-MG cells; PTPi IV 5 or 10 µM, 30 min; 5 mM H2O2, 10 min
Method: as §2

ERK phosphorylation = assay: Immunoblot of p-ERK; format: cell-based, human; settings: CRT-MG cells; PTPi IV 5 or 10 µM, 30 min; 5 mM H2O2, 10 min
Method: as §1, §2

recombinant GST-SHP-2 = target: T1, recombinant GST-SHP-2 (Homo sapiens, UniProt Q06124); assay: Surface plasmon resonance, rGST-SHP-2; format: binding
T1 construct: purchased Abnova (Taipei, Taiwan)
T1 sequence (Q06124 1-593): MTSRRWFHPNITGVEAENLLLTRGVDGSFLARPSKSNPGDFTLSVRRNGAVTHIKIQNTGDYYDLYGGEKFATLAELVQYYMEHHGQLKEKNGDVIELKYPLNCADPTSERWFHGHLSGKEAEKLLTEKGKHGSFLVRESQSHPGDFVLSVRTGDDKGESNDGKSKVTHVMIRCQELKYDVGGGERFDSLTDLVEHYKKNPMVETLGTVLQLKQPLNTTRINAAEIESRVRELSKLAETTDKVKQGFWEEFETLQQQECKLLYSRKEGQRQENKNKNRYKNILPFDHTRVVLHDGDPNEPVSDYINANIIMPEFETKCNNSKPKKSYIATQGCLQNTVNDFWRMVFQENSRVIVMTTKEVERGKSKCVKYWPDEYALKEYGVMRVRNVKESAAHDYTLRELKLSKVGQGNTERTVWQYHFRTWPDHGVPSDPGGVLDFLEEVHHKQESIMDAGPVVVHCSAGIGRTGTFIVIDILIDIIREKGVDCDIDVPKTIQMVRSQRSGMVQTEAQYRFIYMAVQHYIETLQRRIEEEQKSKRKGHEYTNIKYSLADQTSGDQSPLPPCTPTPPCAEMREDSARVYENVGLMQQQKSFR
Method: (§3) SPR was performed on a SPRmicro system (K-MAC, Daejeon, Korea). A G1 chip (bare surface gold chip) was dipped into a 3 mM N-hydroxylsuccinimide self-assembled monolayer to form covalent bonds among protein amine groups. After washing with ethanol, the chip was purged with N2 gas. Recombinant GST-SHP-2 or GST-CSK was mixed with 20% ethylene glycol and then spotted onto the chip. Ligands were reacted on room temperature for 12 h to allow the ligands to become fixed onto the chip. After the reaction, the […] by washing with 1×Tris-buffered saline (TBS), and purged with N2 gas. SPR signal baselines were stabilized using 1×TBS running buffer, and different dilutions of caveolin-1 phosphopeptides (Cav-1 pY 14, GHL-pY-TVPIREQGN) in buffer were injected at a flow rate of 20 µL/min. Response unit (RU) alterations following sample reactions were analyzed by comparing affinities to the chip surface. Experiments were conducted by switching from samples immobilized on the chip (Cav-1 pY 14) to injected samples (rGST-CSK or rGST-SHP-2). […] Equilibrium binding curves and RU values are shown.
(§4) Figure 5 SPR and flow cytometric analyses of SHP-2 and CSK binding to phosphorylated-Tyr peptides of caveolin-1. […] After stringent wash, bound SHP-2 or CSK to caveolin-1 peptide conjugated beads were measured by Accuri C6 flow cytometer.

recombinant GST-CSK = assay: Surface plasmon resonance, rGST-CSK; format: binding; settings: rGST-CSK immobilized on G1 chip; peptide 10 to 1,000 µg/mL injected, 20 µL/min, 1×TBS; repeated twice
Method: as §3, §4

[4] = system: CSK binding to p-caveolin-1 peptide; assay: Flow cytometric competitive binding assay (bound CSK on p-caveolin-1 peptide conjugated beads); design: species or system human; settings: 10 µg recombinant CSK with SHP-2 protein 1–100 µg; flow cytometry; repeated twice
Method: (§5) Human SHP-2 and CSK fusion constructs were produced by consecutively subcloning the protein coding regions of SHP-2 and CSK into the pGEX-6P-1 vector (GE healthcare, Piscataway, NJ, USA). Using these constructs, human SHP-2 and CSK were overexpressed in Escherichia coli (BL21) as soluble. Briefly, the transformed bacteria were grown in LB medium with 0.1 mg/ml ampicillin at 37°C to an A600 of 0.6, and then cultured for an additional overnight at 27°C after being induced with 0.5 mM IPTG (Duchefa Biochemie, Netherlands). The cells were harvested by centrifugation at 8000 g for 20 min, resuspended in PBS pH 7.4, and then disrupted by ultrasonication. The supernatant was purified with glutathione agarose 4B (Incospharm, Daejeon, South Korea) in PBS pH 7.4. The bound proteins were eluted with a linear gradient 10 mM glutathione in 50 mM Tris (pH 8.0). All proteins were concentrated with a Centricon apparatus (Miliipore, Darmstadt, Germany). Proteins were quantitated with the Bradford assay, then filtered and stored at −70°C until use. […]
Figure 6 Small interfering RNA targeting CSK facilitates H2O2-mediated binding between caveolin-1 and SHP-2. […] Fluorescent intensities were measured by Accuri C6 flow cytometer.

[5] = system: recombinant SHP-2 protein; assay: Bead-based flow cytometric binding assay, SHP-2; design: species or system human; settings: caveolin-1 (1–50 a.a.) peptide on carboxyl beads; SHP-2 protein 1–10 µg, 1 h, RT; flow cytometry; repeated twice
Method: as §5, §4

recombinant CSK protein = assay: Bead-based flow cytometric binding assay, CSK; design: species or system human; settings: caveolin-1 (1–50 a.a.) peptide on carboxyl beads; CSK protein 1–10 µg, 1 h, RT; flow cytometry; repeated twice
Method: as §5, §4

Molecule: CC(C)(c1ccc(NS(=O)(=O)C(F)(F)F)cc1)c1ccc(C(C)(C)c2ccc(NS(=O)(=O)C(F)(F)F)cc2)cc1 [PTPi IV]
- H2O2-mediated phosphorylation of Src at Tyr 419 [1]: dose-dependent decrease
- SHP-2 phosphorylation at Y542 and Y580 [2]: significantly reduced
- H2O2-mediated phosphorylation of Src at Tyr 530 [3]: no significant change
- FAK phosphorylation (FAK phosphorylation): strongly inhibited; also recorded: reduced
- ERK phosphorylation (ERK phosphorylation): strongly inhibited; also recorded: reduced

Molecule: GHL-pY-TVPIREQGN [Cav-1 pY 14, synthetic peptide phosphorylated at a Tyr residue corresponding to Tyr 14 of caveolin-1]
- difference in kinetic rates or RUs, rGST-SHP-2 versus rGST-CSK (recombinant GST-SHP-2; rGST-SHP-2 compared with rGST-CSK, immobilized on G1 chip, peptide 10 to 1,000 µg/mL): no significant difference in their kinetic rates or RUs
- SPR binding affinity (recombinant GST-SHP-2; rGST-SHP-2 immobilized on G1 chip, peptide 10 to 1,000 µg/mL injected, 20 µL/min, 1×TBS, repeated twice): high affinity
- SPR binding affinity (recombinant GST-CSK): high affinity

Molecule: SHP-2 protein: human SHP-2 overexpressed in Escherichia coli (BL21) from pGEX-6P-1, glutathione agarose purified
- amount of bound CSK on p-caveolin-1 peptide conjugated beads [4]: reduced by adding increasing concentrations of SHP-2 protein

Molecule: p-caveolin-1 peptide: Fifty-amino acid-long synthetic peptides of caveolin-1 (1–50 a.a.) conjugated to carboxyl beads using EDC (MSGGKYVDSEGHLYTVPIREQGNIYKPNNKAMADELSEKQVYDAHTKEID; also: phosphorylated, sites not given here; UniProt Q03135 1-50, looked up, fragment)
- binding of SHP-2 to peptide conjugated beads [5]: significantly bound
- binding of CSK to peptide conjugated beads (recombinant CSK protein): significantly bound
